Where “and” joins values, the source holds several entries; their conditions need not be identical. Equal entries are not always repeated. Where two headings read alike, the source gives them in different places.
Columns and labels:
[1] = Mouse liver microsome stability; conditions: liver microsomes, second (control) series
SARS-CoV-2 3CL protease [2] = target: T1, SARS-CoV-2 3CL protease (Severe acute respiratory syndrome coronavirus 2, UniProt P0DTD1); test: biochemical; conditions: for % SARS-CoV-2 3CL activity: 200 nM protease, replicates
SARS-CoV-2 3CL protease [3] = target: T1, SARS-CoV-2 3CL protease; test: biochemical; conditions: for kinact/KI: read-out: SARS-CoV-2 3CLpro kinact/KI
SARS-CoV-2 [4] = test: microbe, parasite or virus in culture; format: cell-based
SARS-CoV-2 [5] = test: microbe, parasite or virus in culture; format: cell-based; conditions: for EC50: Severe acute respiratory syndrome coronavirus 2, 24 h, read-out: SARS-CoV-2 Huh-7ACE2 EC50
SARS-CoV-2 [6] = test: microbe, parasite or virus in culture; format: cell-based; conditions: Severe acute respiratory syndrome coronavirus 2, read-out: SARS-CoV-2 EC50
[7] = tested on: Human coronavirus alpha (strain: 229E); test: organism not typed; format: cell-based, HCoV-229E; conditions: Huh-7, read-out: EC50, human coronavirus 229E
[8] = tested on: Human coronavirus beta (strain: OC43); test: organism not typed; format: cell-based, HCoV-OC43; conditions: Huh-7, read-out: EC50, human coronavirus OC43
[9] = tested on: Influenza A H1N1 (strain: California/07/2009); test: microbe, parasite or virus in culture; format: cell-based
SARS-CoV-2 [10] = test: cell-based
in vitro [11] = test: in vitro
SARS-CoV-2 [12] = test: microbe, parasite or virus in culture; conditions: Severe acute respiratory syndrome coronavirus 2, Caco-2, 72 h, read-out: SARS-CoV-2 Caco-2 EC90
SARS-CoV-2 3CL protease [13] = target: T1, SARS-CoV-2 3CL protease; format: binding
SARS-CoV-2 [14] = conditions: read-out: SARS-CoV-2 antiviral EC50; cited from earlier work
SARS-CoV-2 3CL protease [15] = target: T1, SARS-CoV-2 3CL protease; format: binding; remark: listed apart in the source
human chymotrypsin = test: Chymotrypsin activity assay (Panc-1 cell lysate); format: biochemical
in vitro [16] = conditions: human, plasma
in vitro [17] = conditions: CD-1, mouse, plasma
in vitro [18] = conditions: human, microsomes, pH 7.4
in vitro [19] = conditions: CD-1, mouse, microsomes, pH 7.4
[20] = 20 nM protease, read-out: SARS-CoV-2 3CLpro IC50
[21] = Concentration of inhibitor (nM) 0.19382
[22] = Concentration of inhibitor (nM) 0.49485
[23] = Concentration of inhibitor (nM) 0.79588
[24] = Concentration of inhibitor (nM) 1.09691
[25] = Concentration of inhibitor (nM) 1.39794
[26] = Concentration of inhibitor (nM) 1.69897
[27] = Concentration of inhibitor (nM) 2
[28] = Concentration of inhibitor (nM) 2.60206
[29] = Concentration of inhibitor (nM) -0.10721
[30] = Concentration of inhibitor (nM) -0.40824
[31] = Severe acute respiratory syndrome coronavirus 2, Vero C1008, read-out: SARS-CoV-2 Vero E6 EC50
[32] = Severe acute respiratory syndrome coronavirus 2, Vero C1008, 72 h, read-out: EC50, inhibition of SARS-CoV-2 viral replication

CCOc1ccc2ccc(=O)oc2c1 [7-ethoxycoumarin]
percent remaining (Figure S11f) ([1]; Time T0 min): 100 | percent remaining (Figure S11f) ([1]; Time T40 min): 93.3574 and 91.0789 | percent remaining (Figure S11f) ([1]; Time T80 min): 86.8345 and 92.3642

CC(C)C[C@H](NC(=O)OCc1cccc(Cl)c1)C(=O)N[C@@H](C[C@@H]1CCNC1=O)C(O)S(=O)(=O)O (stereo partly drawn) [EB46]
IC50 (SARS-CoV-2 3CL protease [2]; [20]): 23 nM | normalized activity, dose-response curve (Figure S16) (SARS-CoV-2 3CL protease [2]; [21]): 94.5875 and 99.4983 | normalized activity, dose-response curve (Figure S16) (SARS-CoV-2 3CL protease [2]; [22]): 85.636 and 94.5724 | normalized activity, dose-response curve (Figure S16) (SARS-CoV-2 3CL protease [2]; [23]): 82.4718 and 89.5097 | normalized activity, dose-response curve (Figure S16) (SARS-CoV-2 3CL protease [2]; [24]): 66.6922 and 69.8061 | normalized activity, dose-response curve (Figure S16) (SARS-CoV-2 3CL protease [2]; [25]): 43.7931 and 49.1904 | normalized activity, dose-response curve (Figure S16) (SARS-CoV-2 3CL protease [2]; [26]): 26.3066 and 19.407 | normalized activity, dose-response curve (Figure S16) (SARS-CoV-2 3CL protease [2]; [27]): 3.283 and 4.675 | normalized activity, dose-response curve (Figure S16) (SARS-CoV-2 3CL protease [2]; Concentration of inhibitor (nM) 2.30103): 2.2 and 3.398 | normalized activity, dose-response curve (Figure S16) (SARS-CoV-2 3CL protease [2]; [28]): 0.4514 and 0.7525 | normalized activity, dose-response curve (Figure S16) (SARS-CoV-2 3CL protease [2]; [29]): 95.5867 and 98.0844 | normalized activity, dose-response curve (Figure S16) (SARS-CoV-2 3CL protease [2]; [30]): 100 | observed inactivation rate vs compound concentration (Figure S19, replicate values) (SARS-CoV-2 3CL protease [3]): 0.066 and 0.0593 and 0.077 and 0.0911 and 0.0219 and 0.0804 and 0.0309 and 0.0674 and 0.0293 and 0.0341 and 0.0137 and 0.0021 and 0.0076 and 0.0213 and 0.0308 and 0.0151 and 0.0444 and 0.0119 | kinact/KI (SARS-CoV-2 3CL protease [3]): 55000 M⁻¹ s⁻¹ | EC50 (SARS-CoV-2 [4]; [31]): 2000 nM | inhibition of SARS-CoV-2 (Figure s17b dose-response, replicate values) (SARS-CoV-2 [5]): 95.1515 and 86.8894 and 89.9129 and 91.3208 and 86.4116 and 95.1857 and 65.8333 and 65.5396 and 57.9806 and 19.6057 and 31.892 and 43.1913 and 11.28 and 11.1506 and 22.0558 and -4.012 and 10.0819 and 19.0531 and -4.489 and -1.7527 and 16.6924 | EC50 (SARS-CoV-2 [5]): 14 nM | EC50 (SARS-CoV-2 [6]): 47 nM | EC50 [7]: < 100 nM | EC50 [8]: < 100 nM | effect on replication of Influenza H1N1 (in words) [9]: no effect was observed | EC50 ([9]; Influenza A virus, H1N1, MDCK, read-out: Influenza A (H1N1) MDCK EC50): > 100000 nM | EC50 (SARS-CoV-2 [10]): 1100 nM | CC50 (in vitro [11]): > 100000 nM | EC90 (SARS-CoV-2 [12]): 53 nM

CC(C)C[C@H](NC(=O)OCc1ccc2ccccc2c1)C(=O)N[C@@H](C[C@@H]1CCNC1=O)C(O)S(=O)(=O)O (stereo partly drawn) [EB56]
IC50 (SARS-CoV-2 3CL protease [2]; [20]): 50 nM | normalized activity, dose-response curve (Figure S16) (SARS-CoV-2 3CL protease [2]; [21]): 89.823 and 93.9936 | normalized activity, dose-response curve (Figure S16) (SARS-CoV-2 3CL protease [2]; [22]): 85.2362 and 82.2757 | normalized activity, dose-response curve (Figure S16) (SARS-CoV-2 3CL protease [2]; [23]): 85.487 and 88.0978 | normalized activity, dose-response curve (Figure S16) (SARS-CoV-2 3CL protease [2]; [24]): 72.8375 and 72.1422 | normalized activity, dose-response curve (Figure S16) (SARS-CoV-2 3CL protease [2]; [25]): 69.3615 and 64.0723 | normalized activity, dose-response curve (Figure S16) (SARS-CoV-2 3CL protease [2]; [26]): 53.5944 and 48.1904 | normalized activity, dose-response curve (Figure S16) (SARS-CoV-2 3CL protease [2]; [27]): 29.9078 and 31.2768 | normalized activity, dose-response curve (Figure S16) (SARS-CoV-2 3CL protease [2]; [28]): 3.964 and 3.456 | normalized activity, dose-response curve (Figure S16) (SARS-CoV-2 3CL protease [2]; [29]): 94.804 and 91.5247 | normalized activity, dose-response curve (Figure S16) (SARS-CoV-2 3CL protease [2]; [30]): 100 | observed inactivation rate vs compound concentration (Figure S19, replicate values) (SARS-CoV-2 3CL protease [3]): 0.0572 and 0.0815 and 0.095 and 0.0426 and 0.0949 and 0.1078 and 0.0732 and 0.0307 and 0.0058 and 0.0365 and 0.0284 and 0.0434 and 0.0176 and 0.0243 and -0.00666 and 0.0205 and 0.0022 and 0.0219 and 0.0071 and 0.0016 and -0.00538 | kinact/KI (SARS-CoV-2 3CL protease [3]): 18300 M⁻¹ s⁻¹ | binding to 3CL protease by mass spectrometry (in words) (SARS-CoV-2 3CL protease [13]): blocked the covalent binding of 10 equivalents of compound 4 | EC50 (SARS-CoV-2 [4]; [31]): 4000 nM | inhibition of SARS-CoV-2 (Figure s17b dose-response, replicate values) (SARS-CoV-2 [5]): 102.227 and 102.618 and 99.1767 and 91.8872 and 92.3176 and 92.3719 and 59.4672 and 57.4366 and 41.3693 and 36.9002 and 26.4205 and 14.778 and 9.09 and 16.3686 and 1.374 and -4.092 and 13.2513 and -12.3171 and 9.345 and 11.9707 and 3.907 | EC50 (SARS-CoV-2 [5]): 28 nM | EC50 (SARS-CoV-2 [10]): 800 nM

CC(C)(C)[C@H](NC(=O)C(F)(F)F)C(=O)N1C[C@H]2[C@@H]([C@H]1C(=O)N[C@H](C#N)C[C@@H]1CCNC1=O)C2(C)C [PF-07321332]
EC50 (SARS-CoV-2 [14]): 78 nM

CCOC(=O)C=CC(CC1CCNC1=O)NC(=O)C(CC(C)C)NC(=O)C(NC(=O)OCc1ccccc1)C(C)OC(C)(C)C (stereo not drawn) [compound 4]
Normalized SARS-CoV-2 3CL protease activity (SARS-CoV-2 3CL protease [2]): 0.006645 and 0.009809 and 0.01123 | IC50 (SARS-CoV-2 3CL protease [2]; IC50): 123 nM | binding stoichiometry (SARS-CoV-2 3CL protease [15]): 0.97 ± 0.06 | binding to 3CL protease by mass spectrometry (in words) (SARS-CoV-2 3CL protease [13]): one-to-one complex | Normalized chymotrypsin activity (human chymotrypsin): 0.9372 and 0.8587 and 0.9322 | EC50 (SARS-CoV-2 [4]; [32]): 800 nM | concentration above which precipitates formed: above 100 µM | half-life (in vitro [16]): > 240 min | half-life (in vitro [17]): 10 min | half-life (in vitro [18]): 19 min | half-life (in vitro [19]): 7.3 min

O=c1c2ccccc2[se]n1-c1ccccc1 [ebselen, reference compound]
% SARS-CoV-2 3CL activity (SARS-CoV-2 3CL protease [2]; log10[nM] 0.404879): 89.3778% and 107.442% and 103.181% | % SARS-CoV-2 3CL activity (SARS-CoV-2 3CL protease [2]; log10[nM] 0.882): 94.9547% and 93.3775% and 98.4402% | % SARS-CoV-2 3CL activity (SARS-CoV-2 3CL protease [2]; log10[nM] 1.35912): 94.2663% and 88.5936% and 99.7037% | % SARS-CoV-2 3CL activity (SARS-CoV-2 3CL protease [2]; log10[nM] 1.83624): 88.0185% and 85.2126% and 81.8055% | % SARS-CoV-2 3CL activity (SARS-CoV-2 3CL protease [2]; log10[nM] 2.31336): 61.5633% and 42.9069% and 50.6187% | % SARS-CoV-2 3CL activity (SARS-CoV-2 3CL protease [2]; log10[nM] 2.79048): 10.2823% and 8.339% and 9.272% | % SARS-CoV-2 3CL activity (SARS-CoV-2 3CL protease [2]; log10[nM] 3.26761): 7.59% and 9.629% and 7.886% | % SARS-CoV-2 3CL activity (SARS-CoV-2 3CL protease [2]; log10[nM] 3.74473): 6.213% and 7.476% and 5.15% | % SARS-CoV-2 3CL activity (SARS-CoV-2 3CL protease [2]; log10[nM] 4.22185): 3.895% and 5.307% and 2.98% | % SARS-CoV-2 3CL activity (SARS-CoV-2 3CL protease [2]; log10[nM] 4.69897): -2.597% and 1.403% and 1.1938% | % SARS-CoV-2 3CL activity (SARS-CoV-2 3CL protease [2]; log10[nM] -0.0722425): 107.261% and 104.787% and 112.511% | % SARS-CoV-2 3CL activity (SARS-CoV-2 3CL protease [2]; log10[nM] -0.549364): 92.7537% and 98.0597% and 109.187% | binding stoichiometry (SARS-CoV-2 3CL protease [15]; ITC): didn’t reach saturation until a high molar ratio | binding to 3CL protease by mass spectrometry (in words) (SARS-CoV-2 3CL protease [13]): binding of multiple ebselen molecules to each 3CL protease molecule | Normalized chymotrypsin activity (human chymotrypsin; 10µM compound, 100 µg Panc-1 cell lysate, replicates): 0.8849 and 0.7812 and 0.7681 | EC50 (SARS-CoV-2 [4]; [32]): 800 nM

PF-00835231
EC50 (SARS-CoV-2 [14]): 221 nM
